Experimental data from ChEMBL document CHEMBL3046274, “Toxicity of imidacloprid to developmental stages of Rhynchophorus ferrugineus (Curculionidae: Coleoptera): Laboratory and field tests” (Crop Prot, 2006).

Assays:
Type in all cases: functional
[1] = system: Rhynchophorus ferrugineus; test: Pesticidal activity against Rhynchophorus ferrugineus (red palm weevil) larvae assessed as mortality at 1 ppm, po at 48 hr post-treatment relative to control
[2] = system: Rhynchophorus ferrugineus; test: Pesticidal activity against Rhynchophorus ferrugineus (red palm weevil) cocoon assessed as mortality at 1 ppm administered by dipping for 3 min measured at 24 hr post-treatment relative to control
[3] = system: Rhynchophorus ferrugineus; test: Pesticidal activity against Rhynchophorus ferrugineus (red palm weevil) larvae assessed as mortality at 1 ppm, po at 90 hr post-treatment relative to control
[4] = system: Rhynchophorus ferrugineus; test: Pesticidal activity against Rhynchophorus ferrugineus (red palm weevil) larvae assessed as mortality at 0.5 ppm, po at 72 hr post-treatment relative to control
[5] = system: Rhynchophorus ferrugineus; test: Pesticidal activity against Rhynchophorus ferrugineus (red palm weevil) larvae infested date palm tree assessed as mortality of collected live stage at 20 ml/4l of water applied through soil-drench irrigation measured at 3 weeks post-treatment within 48 hr after emergence relative to control
[6] = system: Rhynchophorus ferrugineus; test: Pesticidal activity against adult Rhynchophorus ferrugineus (red palm weevil) assessed as mortality at 300 ppm administered topically at 18 hr post-treatment
[7] = system: Rhynchophorus ferrugineus; test: Contact toxicity against Rhynchophorus ferrugineus (red palm weevil) adults assessed as time required for 100% mortality at 3.5 ml/l for 5 min
[8] = system: Rhynchophorus ferrugineus; test: Contact toxicity against Rhynchophorus ferrugineus (red palm weevil) adults assessed as time required for 100% mortality at 2.5 ml/l for 5 min
[9] = system: Rhynchophorus ferrugineus; test: Contact toxicity against Rhynchophorus ferrugineus (red palm weevil) adults assessed as time required for 50% mortality at 1.5 ml/l for 5 min
[10] = system: Rhynchophorus ferrugineus; test: Contact toxicity against Rhynchophorus ferrugineus (red palm weevil) adults assessed as time required for 50% reversible knockdown at 3.5 ml/l for 5 min
[11] = system: Rhynchophorus ferrugineus; test: Contact toxicity against Rhynchophorus ferrugineus (red palm weevil) adults assessed as time required for 50% reversible knockdown at 1.5 ml/l for 5 min
[12] = system: Rhynchophorus ferrugineus; test: Contact toxicity against Rhynchophorus ferrugineus (red palm weevil) adults assessed as time required for 100% mortality at 2.5 ml/l for 2 min
[13] = system: Rhynchophorus ferrugineus; test: Contact toxicity against Rhynchophorus ferrugineus (red palm weevil) adults assessed as time required for 50% mortality at 3.5 ml/l for 2 min
[14] = system: Rhynchophorus ferrugineus; test: Pesticidal activity against Rhynchophorus ferrugineus (red palm weevil) cocoon assessed as mortality at 4 ppm administered by dipping for 3 min measured at 72 hr post-treatment relative to control
[15] = system: Rhynchophorus ferrugineus; test: Pesticidal activity against adult Rhynchophorus ferrugineus (red palm weevil) assessed as mortality at 0.5 ppm, po at 18 hr post-treatment relative to control
[16] = system: Rhynchophorus ferrugineus; test: Pesticidal activity against Rhynchophorus ferrugineus (red palm weevil) larvae assessed as mortality at 1.5 ppm, po at 18 hr post-treatment relative to control
[17] = system: Rhynchophorus ferrugineus; test: Pesticidal activity against Rhynchophorus ferrugineus (red palm weevil) larvae assessed as mortality at 500 ppm administered topically at 48 hr post-treatment
[18] = system: Rhynchophorus ferrugineus; test: Pesticidal activity against adult Rhynchophorus ferrugineus (red palm weevil) assessed as time required for reversible knockdown at 3.5 ml/l administered topically

With `O=[N+]([O-])/N=C1\NCCN1Cc1ccc(Cl)nc1` [IMIDACLOPRID] the Activity [1] was 38.9%, the Activity [2] was 0% and the Activity [3] was 100%. It also gave an Activity [4] of 38.9%, an Activity [5] of 100% and an Activity [6] of 72.2%. It also gave a Time [7] of 4.2 days, a Time [8] of 7.2 days and a Time [9] of 4.3 days. The Time [10] was 1.1 days, the Time [11] was 3.2 days and the Time [12] was 13.1 days. The Time [13] was 4.1 days, the Activity [14] was 44.4% and the Activity [15] was 0%. The Activity [16] was 72.2%, the Activity [17] was 72.2% and the Time [18] was 1 days.
